Data set [1] addresses T1, LdGSK-3s (Leishmania donovani, UniProt A6N857). Description: Inhibition of recombinant LdGSK-3s with Kinase Glo. Format: biochemical. As to conditions: recombinant LdGSK-3s, Kinase Glo. As to the method:
(§1) Extraction, purification, and evaluation of compounds against recombinant LdGSK-3s was carried out as described. For that, a recombinant LdGSK-3s with a His-tag was obtained as inclusion bodies, that were further solubilized, and purified by chromatography first on a Ni^2+ column an in a second step on a DEAE (diethylaminoethyl) ionic exchange column. Samples were made in duplicate, and assays were repeated at least three times. IC50 (inhibitory concentration that decreases enzymatic activity by 50%) was calculated using the statistical module of SigmaPlot v11.0 software. Evaluation of compounds against hGSK-3β was performed using human recombinant GSK-3β purchased from Millipore as described previously. Compounds were prepared as a 10 mM stock solution in DMSO.
(In general: Kinase-Glo reads ATP consumption through a luciferase reaction.)

Data set [2] deals with L. infantum promastigotes. Nature of the data set: Leishmanicidal activity on promastigotes (MTT reduction), Table 2 and Table S1. Format: cell-based, Leishmania infantum. As to the method: (§2) Both activities were assessed by inhibition of MTT (3-(4,5-dimethylthiazol-2-yl)-2,5-diphenyltetrazolium bromide) reduction, as described in [34]. Samples were made in triplicate and assays were repeated at least twice. DMSO content in the medium was adjusted to 0.25% v/v (final concentration), regardless of the final concentration of the drug, and for the control, the untreated parasites. ICx (inhibitory concentration that inhibits parasite growth or enzymatic activity by x%) was calculated using the statistical module of SigmaPlot v11.0 software.
In a step ahead, the leishmanicidal activity of the compounds on L. pifanoi axenic amastigotes and L. infantum promastigotes was evaluated. Axenic Leishmania amastigotes afford the appraisal of the leishmanicidal activity without the constrains imposed on the access of the compounds to intracellular amastigotes within the parasitophorous vacuole, as well as to preclude the interference of the compounds via host–parasite interface in the final activity. For that, the axenic line of L. pifanoi amastigotes belonging to the mexicana complex was chosen, as in this species the infectivity, antigenicity, and metabolic identity between axenic and intracellular amastigotes have been consistently validated.

Data set [3] deals with L. pifanoi axenic amastigotes. Nature of the data set: Leishmanicidal activity on axenic amastigotes (MTT reduction). Format: cell-based, Leishmania pifanoi. (In general: Formazan colour is commonly taken as a measure of viable cells.)
For data set [4], the target named is T2, hGSK-3β (Homo sapiens, UniProt P49841).
T2 construct: purchased Millipore
Description: Inhibition of human recombinant GSK-3β. To be noted: read-out: percentage of inhibition of hGSK-3β. It counts as biochemical. The protocol: as §1

Data set [5] concerns mouse peritoneal macrophages (MPM). Nature of the data set: Cytotoxicity on mouse peritoneal macrophages (MTT reduction). Format: cell-based. To be noted: for Selectivity Index (SI): IC50 MPM/IC50 axenic amastigotes; for IC50: mouse peritoneal macrophages, MTT reduction. The protocol:
Leishmania parasites were collected at late exponential growth phase by centrifugation at 1610× g at 4 °C. Elicited mouse peritoneal macrophages (MPM) were obtained from 8-week-old Balb/c mice through i.p. injection with 1 mL of 10% thioglycolate medium 72 h before extraction. Macrophages were obtained by peritoneal washing (10 mL PBS, 4 °C).
as §2

Data set [6] has as its system L. donovani promastigotes. Nature of the data set: Mitochondrial membrane depolarization (Rhodamine 123 accumulation). Format: cell-based, Leishmania donovani. As to conditions: 2 μM (IC80), 4 h.
The test system of data set [7] is L. donovani promastigotes. Description: Sub G0/G1 population (propidium iodide flow cytometry). It counts as cell-based, Leishmania donovani. To be noted: 72 h. As to the method: L. donovani promastigotes (2 × 10^6 cells/mL) in RPMI-HIFCS were incubated with each compound in 24-well plates for 72 h at 26 °C by duplicate. Next, compounds were removed by washing with HBSS-Glc (15,700× g, 4 min, 4 °C) and cells were resuspended in […] of HBSS-Glc, fixed and permeabilized by addition of 200 μL 70% cold EtOH and incubated overnight at 4 °C. Ethanol was removed by centrifugation and cellular pellets washed with HBSS-Glc. Finally, cells were resuspended in 500 μL HBSS-Glc with 20 μg/mL propidium iodide (PI) and 3 mg/mL Ribonuclease A, and incubated in darkness at r. t. for 30 min. PI fluorescence was measured in a Coulter XL EPICS flow cytometer (Beckman Coulter, Nyon, Switzerland) (λEXC = 488 nm, λEM = 620 nm).
Each assay was repeated at least twice. Untreated cells were used as control for a standard cell cycle histogram, and Miltefosine (hexadecylphosphocholine) (15 μM) was used as control for an apoptosis-inducing respiratory inhibitor [51].
Parasites were incubated with the corresponding drug for 72 h, followed by EtOH permeabilization, incubated with 3 mg/mL Ribonuclease A and stained with 20 μg/mL of propidium iodide (PI) before cytofluorometric analysis. (λEXC = 488 nm, λEM = 620 nm). The percentage of subG0/G1 population (enclosed within green bars) stands for degraded chromatin, associated with the apoptotic-like process. Miltefosine (hexadecylphosphocholine, HePc) at 15 μM was added as a control for induction of apoptosis.
Background: Flow cytometry measures light scatter and fluorescence of single cells or particles in a stream.

Data set [8] concerns the target T1, LdGSK-3s. Nature of the data set: Mechanism of inhibition of LdGSK-3s (kinetics versus ATP, Eadie–Scatchard plot). Format: biochemical. To be noted: ATP 1 to 10 μM, inhibitor 2.5 and 5 μM, GS2 25 μM. As to the method: Briefly, kinetic experiments were carried out at four different concentrations of ATP (10, 5, 2.5, and 1 µM), in the absence or presence of the inhibitors, at either 2.5 or 5 µM, while the phospho-glycogen synthase peptide-2 (GS2) substrate was kept constant at 25 µM. The data were processed using Microsoft Excel software and results presented as Eadie–Scatchard plots (v vs. v/[ATP]).

Like-named read-outs stand apart in the source and are kept apart here.

T1 sequence (A6N857 entry or part of it): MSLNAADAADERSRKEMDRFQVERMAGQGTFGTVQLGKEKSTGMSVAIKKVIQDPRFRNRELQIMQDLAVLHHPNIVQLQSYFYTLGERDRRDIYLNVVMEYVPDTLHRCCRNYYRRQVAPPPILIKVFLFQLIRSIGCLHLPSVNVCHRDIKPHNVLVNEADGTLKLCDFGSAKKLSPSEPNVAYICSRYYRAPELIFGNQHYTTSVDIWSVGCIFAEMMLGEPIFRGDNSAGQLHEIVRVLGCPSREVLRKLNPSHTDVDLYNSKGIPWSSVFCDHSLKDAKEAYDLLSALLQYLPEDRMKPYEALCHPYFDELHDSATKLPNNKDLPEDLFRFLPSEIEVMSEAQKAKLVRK
T2 sequence (P49841 whole entry): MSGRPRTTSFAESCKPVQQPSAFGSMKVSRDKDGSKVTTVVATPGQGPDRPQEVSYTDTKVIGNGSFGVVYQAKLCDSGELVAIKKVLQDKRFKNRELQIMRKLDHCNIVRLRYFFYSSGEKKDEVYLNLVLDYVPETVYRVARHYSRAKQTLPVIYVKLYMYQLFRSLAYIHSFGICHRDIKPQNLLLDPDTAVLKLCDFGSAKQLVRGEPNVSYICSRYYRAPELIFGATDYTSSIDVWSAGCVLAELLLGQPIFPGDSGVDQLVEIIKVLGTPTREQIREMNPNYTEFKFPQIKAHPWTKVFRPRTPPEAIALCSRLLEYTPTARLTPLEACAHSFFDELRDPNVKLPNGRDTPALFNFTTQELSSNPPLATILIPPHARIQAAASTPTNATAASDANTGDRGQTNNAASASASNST

A word on the IC50: it is the concentration needed to halve the response being measured. On to `O=C1C(Cl)=C(NCc2ccccc2)C(=O)c2ccccc21`, for which the IC50 in data set [1] was over 10 µM; in data set [2] (Leishmania infantum), over 25 µM; in [3] (Leishmania pifanoi), over 25 µM.
One may read the inhibition as the drop in the measured response relative to a control, in per cent. For orientation: melting point means the temperature of the solid-liquid transition. The molecule `CCOC(=O)NC1=C(Cl)C(=O)c2ccccc2C1=O` [Compound 1, Ethyl-(3-chloro-1,4-naphthoquinone-2-yl)carbamate] returned a melting point of 147 to 149 °C. Moreover, the IC50 in data set [1] came out at 3.7 ± 0.3 µM. Besides, the inhibition at 10 µM in data set [4] came out at 30%. In addition, the IC50 in [2] (Leishmania infantum) is 1.54 ± 0.01 µM. For the same molecule, the IC50 in [3] (Leishmania pifanoi) was found to be 0.15 ± 0.4 µM. The “Selectivity Index (SI)” value in data set [5] worked out at 20.6. Besides, the IC50 in [5] (Peritoneal macrophage) was 3.1 ± 0.1 µM. Moreover, in data set [6], the “decrease of Rh123 fluorescence” value is on record as 33.0%. The “percentage of subG0/G1 population” value in [7] (2 μM (IC80)) was found to be 54.0 ± 4.2%. In addition, the “mechanism of inhibition of LdGSK-3s” value in data set [8] is given as “ATP competitive inhibitors”.
Take `O=C(NC1=C(Cl)C(=O)c2ccccc2C1=O)OCc1ccccc1` [Compound 3, Benzyl-(3-chloro-1,4-naphthoquinone-2-yl)carbamate]: the IC50 in [1] came to 2.8 ± 0.1 µM; in data set [2] (Leishmania infantum), 4.9 ± 0.2 µM; in data set [3] (Leishmania pifanoi), 4.7 ± 0.8 µM; in [5] (Peritoneal macrophage), 9.8 ± 0.2 µM. Besides, the inhibition at 10 µM in [4] turned out to be 19%.
In the case of `COc1ccc(COC(=O)NC2=C(Cl)C(=O)c3ccccc3C2=O)cc1` [Compound 4, 4-Methoxybenzyl-(3-chloro-1,4-naphthoquinone-2-yl)carbamate], the melting point was in the range of 137 to 147 °C. Further, in data set [1], the IC50 worked out at 4.1 ± 0.1 µM. In [2] (Leishmania infantum), this molecule had an IC50 of 2.9 ± 0.2 µM. In [3] (Leishmania pifanoi), the IC50 was determined as 3.7 ± 1.1 µM. For the same molecule, in data set [5], the “Selectivity Index (SI)” value is recorded as 2.0. For the same molecule, 7.4 ± 0.8 µM corresponded to half-maximal inhibition in data set [5] (Peritoneal macrophage) (IC50).
Consider `COc1cc(COC(=O)NC2=C(Cl)C(=O)c3ccccc3C2=O)cc(OC)c1OC` [Compound 5, 3,4,5-Trimethoxybenzyl-(3-chloro-1,4-naphthoquinone-2-yl)carbamate], for which the half-maximal inhibitory concentration (IC50) in [1] stood at 4.5 ± 0.6 µM; in [2] (Leishmania infantum), 3.8 ± 1.9 µM; in [3] (Leishmania pifanoi), 3.6 ± 0.6 µM; in data set [5] (Peritoneal macrophage) it was 8.1 ± 1 µM.
As for `CCCNC1=C(Cl)C(=O)c2ccccc2C1=O` [Compound 6, 2-Chloro-3-(propylamino)-1,4-naphthoquinone], the IC50 in data set [1] was over 10 µM; in data set [2] (Leishmania infantum), 19.1 ± 1.2 µM; in [3] (Leishmania pifanoi), over 25 µM.
Taken in the same sequence, the figures for `CCCCCNC1=C(Cl)C(=O)c2ccccc2C1=O` [Compound 7, 2-Chloro-3-(pentylamino)-1,4-naphthoquinone] were over 10 µM, 16.9 ± 0.4 µM and over 25 µM.
Regarding `CC(C)(C)NC1=C(Cl)C(=O)c2ccccc2C1=O` [Compound 8, 2-(tert-Butylamino)-3-chloro-1,4-naphthoquinone], the IC50 is over 10 µM in data set [1], 19.8 ± 3.6 µM in data set [2] (Leishmania infantum), 17.8 ± 1.1 µM in data set [3] (Leishmania pifanoi) and 17 ± 0.3 µM in data set [5] (Peritoneal macrophage). In addition, the “Selectivity Index (SI)” value in [5] came out at 1.0.
For the molecule `O=C1C(Cl)=C(NC2CCCCC2)C(=O)c2ccccc21` [Compound 9, 2-Chloro-3-(cyclohexylamino)-1,4-naphthoquinone], the melting point was in the range of 122 to 123 °C. Further, in data set [1], the IC50 was over 10 µM. In addition, the IC50 in data set [2] (Leishmania infantum) is over 25 µM. This molecule came in with an IC50 in data set [3] (Leishmania pifanoi) of over 25 µM.
The molecule `COc1cc(CNC2=C(Cl)C(=O)c3ccccc3C2=O)cc(OC)c1OC` [Compound 10, 2-Chloro-3-((3,4,5-trimethoxybenzyl)amino)-1,4-naphthoquinone] showed a melting point of 161 to 163 °C. Moreover, the concentration for half-maximal inhibition (IC50) in data set [1] was over 10 µM. In [2] (Leishmania infantum), this molecule gave an IC50 of over 50 µM. Further, the IC50 in data set [3] (Leishmania pifanoi) was over 50 µM.
Regarding `O=C1C(Cl)=C(NCc2ccc(Cl)cc2)C(=O)c2ccccc21` [Compound 11, 2-Chloro-3-((4-chlorobenzyl)amino)-1,4-naphthoquinone], the IC50 in data set [1] is over 10 µM; in [2] (Leishmania infantum) it was over 25 µM; in data set [3] (Leishmania pifanoi), over 25 µM.
Consider `O=C1C(Cl)=C(Nc2ccc(Cl)cc2)C(=O)c2ccccc21` [Compound 12, 2-Chloro-3-((4-chlorophenyl)amino)-1,4-naphthoquinone], for which the IC50 in [1] was over 10 µM; in [2] (Leishmania infantum) it was over 50 µM; in [3] (Leishmania pifanoi), over 50 µM.
With `CC(C)(C)NC(=O)NC1=C(Cl)C(=O)c2ccccc2C1=O` [Compound 14, 1-(tert-Butyl)-3-(3-chloro-1,4-naphthoquinone-2-yl)urea], the melting point fell in the range of 195 to 196 °C. The IC50 in [1] was over 10 µM. In addition, the IC50 in data set [2] (Leishmania infantum) is 1.4 ± 0.4 µM. Moreover, in data set [3] (Leishmania pifanoi), the IC50 turned out to be 2.1 ± 0.6 µM. In [5], the “Selectivity Index (SI)” value was 0.6. In [5] (Peritoneal macrophage), this molecule showed an IC50 of 1.3 ± 0.3 µM.
In turn, `COC(=O)NC1=CC(=O)c2ccccc2C1=O` [Compound 16, Methyl-(1,4-naphthoquinone-2-yl)carbamate] yielded a melting point of 201 to 202 °C. Further, the IC50 in [1] was over 10 µM. The same molecule registered an IC50 in [2] (Leishmania infantum) of 4.1 ± 0.8 µM. Moreover, the IC50 in data set [3] (Leishmania pifanoi) amounted to 1.7 ± 0.2 µM. For the same molecule, in data set [5], the “Selectivity Index (SI)” value came to 2.2. The molecule also registered an IC50 in data set [5] (Peritoneal macrophage) of 3.8 ± 0.3 µM.
As to `CCOC(=O)NC1=CC(=O)c2ccccc2C1=O` [Compound 17, Ethyl-(1,4-naphthoquinone-2-yl)carbamate], the melting point lay in the range of 162 to 163 °C. Further, the IC50 in data set [1] was over 10 µM. Moreover, the IC50 in data set [2] (Leishmania infantum) came to 4.5 ± 0.7 µM. This molecule also displayed an IC50 in data set [3] (Leishmania pifanoi) of 1.7 ± 0.1 µM. In addition, the “Selectivity Index (SI)” value in [5] was 2.5. In data set [5] (Peritoneal macrophage), the IC50 came to 4.2 ± 0.2 µM.
`CCCCCCCCCCCCCCCCOP(=O)([O-])OCC[N+](C)(C)C` [HePc, hexadecylphosphocholine, reference compound]: in data set [7] (15 μM, control for induction of apoptosis), the “percentage of subG0/G1 population” value was 36.8 ± 1.1%.
On to `O=C1Nc2ccc(S(=O)(=O)O)cc2C1=C1Nc2ccccc2C1=NO` [Indirubin-3′-monoxime-5-sulphonic acid, reference compound], for which the IC50 in data set [1] was determined as 2.4 µM.
As to “N-(1,4-Naphthoquinone-2-yl) phenylacetamide [Compound 20]”, the IC50 in data set [1] was over 10 µM; in data set [2], 7.1 ± 2.1 µM; in [3] it was 3.2 ± 0.1 µM; in data set [5], 7.5 ± 0.6 µM.
Taken in the same sequence, the figures for “N-(1,4-Naphthoquinone-2-yl)acetamide [Compound 18]” were over 10 µM, 4.5 ± 0.5 µM, 1.2 ± 0.1 µM and 4 ± 0.2 µM.
The corresponding values for “N-(1,4-Naphthoquinone-2-yl)propionamide [Compound 19]” are over 10 µM, 5.9 ± 1.8 µM, 1.8 ± 0.3 µM and 4.3 ± 0.3 µM.

(Values after publication PMC9139002, “Naphthoquinone as a New Chemical Scaffold for Leishmanicidal Inhibitors of Leishmania GSK-3” (Biomedicines, 2022).)
